From ChEMBL document CHEMBL1201862, “PubChem BioAssay data set” (2004)
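48-hour exposure; five concentrations; linearly interpolated endpoints. Here, GI50 denotes the concentration required for 50% inhibition of growth.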 Active and inactive are the calls of the source. No stated cut-off is given here; in the data, active = GI50 up to about 1.1 µM and inactive = higher.

Columns and labels:
Assay in all cases: growth of human tumour cells (NCI), 48 h
UACC-62 = system: UACC-62
786-0 = system: 786-0
HL-60 = system: HL-60
HCT-15 = system: HCT-15
SF-295 = system: SF-295
HT-29 = system: HT-29
UACC-257 = system: UACC-257
COLO 205 = system: COLO 205
NCI-H460 = system: NCI-H460
SK-MEL-28 = system: SK-MEL-28
U-251 = system: U-251
M14 = system: M14
SR = system: SR
OVCAR-8 = system: OVCAR-8
HOP-92 = system: HOP-92

SMILES	GI50 (UACC-62)	GI50 (786-0)	GI50 (HL-60)	GI50 (HCT-15) [µM]	GI50 (SF-295)	GI50 (HT-29)	GI50 (UACC-257)	GI50 (COLO 205)	GI50 (NCI-H460)	GI50 (SK-MEL-28)	GI50 (U-251)	GI50 (M14)	GI50 (SR)	GI50 (OVCAR-8)	GI50 (HOP-92)
O=c1ccc2ccccc2c2ccccc12	2.27 µM (inactive)	2.77 µM (inactive)	2.96 µM (inactive)	1.87	3.61 µM (inactive)	2.93 µM (inactive)	4.82 µM (inactive)	4.6 µM (inactive)	3.98 µM (inactive)	5.46 µM (inactive)	2.34 µM (inactive)	2.42 µM (inactive)	1.52 µM (inactive)	2.34 µM (inactive)	
Nc1nc(N)c(-c2ccccc2)c(C(=O)Nc2ccc(Cl)c(Cl)c2)n1	> 100 µM (inactive)	> 100 µM (inactive)	> 100 µM (inactive)	> 100	> 100 µM (inactive)	> 100 µM (inactive)	> 100 µM (inactive)		> 100 µM (inactive)	> 100 µM (inactive)	> 100 µM (inactive)	> 100 µM (inactive)		> 100 µM (inactive)	> 100 µM (inactive)
O=C1C(c2ccccc2)=C(c2ccccc2)C(c2ccc(-c3ccc(C4=C(c5ccccc5)C(=O)C(c5ccccc5)=C4c4ccccc4)cc3)cc2)=C1c1ccccc1	> 100 µM (inactive)	> 100 µM (inactive)	> 100 µM (inactive)	> 100	> 100 µM (inactive)	> 100 µM (inactive)	> 100 µM (inactive)	> 100 µM (inactive)	> 100 µM (inactive)		> 100 µM (inactive)	> 100 µM (inactive)	> 100 µM (inactive)	> 100 µM (inactive)	> 100 µM (inactive)
Cc1ccc2c(c1)CN1c3ccc(C)cc3CN2C1c1ccccc1O	25.1 µM (inactive)	42.5 µM (inactive)	14.8 µM (inactive)	23.6	46.8 µM (inactive)	42 µM (inactive)		78.7 µM (inactive)	33.9 µM (inactive)	37.5 µM (inactive)	38.5 µM (inactive)	> 100 µM (inactive)	11.7 µM (inactive)	> 100 µM (inactive)	15.2 µM (inactive)
O=C1CC2CC=C[C@H]3c4cc5c(cc4C(=O)N1C23)OCO5 (stereo not given in full)	> 50 µM (inactive)	> 50 µM (inactive)	> 50 µM (inactive)	> 50	> 50 µM (inactive)	> 50 µM (inactive)	> 50 µM (inactive)	> 50 µM (inactive)	> 50 µM (inactive)	> 50 µM (inactive)	> 50 µM (inactive)	> 50 µM (inactive)		> 50 µM (inactive)	
CN1CCOC(c2ccccc2)O1 (stereo not given)	> 100 µM (inactive)	> 100 µM (inactive)	> 100 µM (inactive)	> 100	> 100 µM (inactive)	> 100 µM (inactive)	> 100 µM (inactive)	> 100 µM (inactive)	> 100 µM (inactive)	> 100 µM (inactive)	> 100 µM (inactive)	> 100 µM (inactive)	> 100 µM (inactive)	> 100 µM (inactive)	> 100 µM (inactive)
O=C(Nc1ccccc1-c1n[nH]c(S)nc1=O)C(F)(F)F	> 100 µM (inactive)	> 100 µM (inactive)		> 100	> 100 µM (inactive)	> 100 µM (inactive)		> 100 µM (inactive)	> 100 µM (inactive)	> 100 µM (inactive)	> 100 µM (inactive)	> 100 µM (inactive)	> 100 µM (inactive)	> 100 µM (inactive)	> 100 µM (inactive)
CC1OC(CC(=O)O)Cc2c(O)c3c(c(O)c21)C(=O)C=C(C1=CC(=O)c2c(O)c4c(c(O)c2C1=O)CC(CC(=O)O)OC4C)C3=O (stereo not given)	12.8 µM (inactive)	21.4 µM (inactive)	3.03 µM (inactive)	11.6	88.7 µM (inactive)	18.5 µM (inactive)	13.4 µM (inactive)	5.28 µM (inactive)	60.8 µM (inactive)	14.7 µM (inactive)	26.1 µM (inactive)	15 µM (inactive)	3.69 µM (inactive)	23.4 µM (inactive)	24.3 µM (inactive)
Cc1ccc(NC(=O)SCCC(=O)O)cc1	45.7 µM (inactive)	> 100 µM (inactive)	> 100 µM (inactive)	> 100	> 100 µM (inactive)	> 100 µM (inactive)	> 100 µM (inactive)	> 100 µM (inactive)	> 100 µM (inactive)	> 100 µM (inactive)	> 100 µM (inactive)	> 100 µM (inactive)	> 100 µM (inactive)	> 100 µM (inactive)	
COC[C@@H]1[C@H]2OC(C)(C)O[C@H]2C(=O)N1C(=O)c1ccc(OC)cc1	> 100 µM (inactive)	> 100 µM (inactive)	> 100 µM (inactive)	> 100	> 100 µM (inactive)	> 100 µM (inactive)	> 100 µM (inactive)	> 100 µM (inactive)	> 100 µM (inactive)	> 100 µM (inactive)	> 100 µM (inactive)	> 100 µM (inactive)	> 100 µM (inactive)	> 100 µM (inactive)	> 100 µM (inactive)
